For this experiment, the target named is T1, HDAC6 enzyme (Homo sapiens, UniProt Q9UBN7).
T1 construct: transducing full length HDAC6 gene into Sf-9 insect cells; GST; purchased SignalChem; host or cells: Sf-9 insect cells
T1 sequence (Q9UBN7 1-1215): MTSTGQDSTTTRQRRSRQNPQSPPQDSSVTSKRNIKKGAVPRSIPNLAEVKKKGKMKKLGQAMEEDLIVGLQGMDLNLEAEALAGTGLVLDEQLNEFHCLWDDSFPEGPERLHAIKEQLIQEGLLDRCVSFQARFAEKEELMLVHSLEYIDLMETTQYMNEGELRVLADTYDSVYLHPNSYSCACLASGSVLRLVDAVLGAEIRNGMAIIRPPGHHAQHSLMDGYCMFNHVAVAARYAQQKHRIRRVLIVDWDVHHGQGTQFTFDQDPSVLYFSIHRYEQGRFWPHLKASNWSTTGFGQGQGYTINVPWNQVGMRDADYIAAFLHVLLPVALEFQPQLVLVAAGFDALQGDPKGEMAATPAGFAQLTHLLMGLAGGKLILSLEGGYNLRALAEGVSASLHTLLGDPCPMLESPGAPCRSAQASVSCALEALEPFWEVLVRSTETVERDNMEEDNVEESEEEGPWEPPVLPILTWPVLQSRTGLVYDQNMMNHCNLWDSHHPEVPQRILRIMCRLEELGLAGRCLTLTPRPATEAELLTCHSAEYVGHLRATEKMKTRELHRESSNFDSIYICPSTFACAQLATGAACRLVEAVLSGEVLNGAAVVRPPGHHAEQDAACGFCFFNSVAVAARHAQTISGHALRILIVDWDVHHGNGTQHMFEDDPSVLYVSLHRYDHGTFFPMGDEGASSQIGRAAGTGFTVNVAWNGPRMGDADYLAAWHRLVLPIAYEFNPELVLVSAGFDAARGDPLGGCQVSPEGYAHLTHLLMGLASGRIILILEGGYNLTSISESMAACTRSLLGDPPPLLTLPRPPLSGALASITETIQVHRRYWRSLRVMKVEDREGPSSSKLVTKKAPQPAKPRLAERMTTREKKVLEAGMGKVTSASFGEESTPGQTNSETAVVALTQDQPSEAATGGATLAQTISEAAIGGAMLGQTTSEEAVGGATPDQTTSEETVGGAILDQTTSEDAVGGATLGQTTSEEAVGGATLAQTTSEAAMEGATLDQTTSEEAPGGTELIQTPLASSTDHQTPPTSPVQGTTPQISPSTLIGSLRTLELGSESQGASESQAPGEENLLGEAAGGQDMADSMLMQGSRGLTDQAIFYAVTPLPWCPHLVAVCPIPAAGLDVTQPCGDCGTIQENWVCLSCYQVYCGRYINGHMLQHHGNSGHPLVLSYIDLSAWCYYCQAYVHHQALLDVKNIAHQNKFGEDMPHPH
Kind of experiment: HDAC6 enzyme inhibitory activity (HDAC-Glo I/II Assay kit). It counts as biochemical. Conditions: 10 μM; wells without enzyme = 100% inhibition; read-out: HDAC6 inhibitory rate (%) (10 μM). Summed up: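 Luminescent HDAC-Glo I/II readout after 20 min room-temperature reaction with substrate-developer, following 60 min compound–enzyme preincubation. Enzyme: full-length HDAC6 from Sf-9 cells, GST-purified; buffer 24 mM Tris-HCl pH 7.5, 0.01% Tween-20, glutathione, salts. Wells lacking enzyme define 100% inhibition.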
With `Cn1cc(-c2cc(F)cc(F)c2)c(N2Cc3ccc(-c4nnc(C(F)F)o4)cc3C2=O)n1` [Example 455, 6-(5-(difluoro-methyl)-1,3,4-oxadiazol-2-yl)-2-(4-(3,5-difluoro-phenyl)-1-methyl-1H-pyrazol-3-yl) isoindolin-1-one], the inhibition at 10 µM turned out to be 102%. With `CCOc1ccccc1CN1Cc2ncc(-c3nnc(C(F)F)o3)cc2C1=O` [Example 456, 3-(5-(difluoro-methyl)-1,3,4-oxadiazol-2-yl)-6-(2-ethoxy-benzyl)-6,7-dihydro-5H-pyrrolo[3,4-b] pyridin-5-one], the inhibition at 10 µM came out at 100%. In the case of `O=C1c2cc(-c3nnc(C(F)F)o3)cnc2CN1Cc1cc2ccccn2n1` [Example 457, 3-(5-(difluoro-methyl)-1,3,4-oxadiazol-2-yl)-6-(pyrazolo [1,5-a]pyridin-2-ylmethyl)-6,7-dihydro-5H-pyrrolo [3,4-b] pyridin-5-one], the inhibition at 10 µM was found to be 97%. Regarding `O=C1c2cc(-c3nnc(C(F)F)o3)cnc2CN1Cc1cnn2ccccc12` [Example 458, 3-(5-(difluoro-methyl)-1,3,4-oxadiazol-2-yl)-6-(pyrazolo [1,5-a]pyridin-3-ylmethyl)-6,7-dihydro-5H-pyrrolo [3,4-b] pyridin-5-one], the inhibition at 10 µM came to 100%. With `Cn1cc(-c2cncc(F)c2)c(N2Cc3ccc(-c4nnc(C(F)F)o4)cc3C2=O)n1` [Example 459, 6-(5-(difluoro-methyl)-1,3,4-oxadiazol-2-yl)-2-(4-(5-fluoro-pyridin-3-yl)-1-methyl-1H-pyrazol-3-yl) isoindolin-1-one], the inhibition at 10 µM came out at 97%.

As to `Cn1cc(-c2ccccc2F)c(N2Cc3ccc(-c4nnc(C(F)F)o4)cc3C2=O)n1` [Example 460, 6-(5-(difluoro-methyl)-1,3,4-oxadiazol-2-yl)-2-(4-(2-fluoro-phenyl)-1-methyl-1H-pyrazol-3-yl) isoindolin-1-one], the inhibition at 10 µM came out at 102%. With `CCC(=O)N[C@@H]1CCCC[C@H]1N1Cc2ncc(-c3nnc(C(F)F)o3)cc2C1=O` [Example 461, N-((1R,2R)-2-(3-(5-(difluoro-methyl)-1,3,4-oxadiazol-2-yl)-5-oxo-5,7-dihydro-6H-pyrrolo[3,4-b]pyridin-6-yl)cyclohexyl) propanamide], the inhibition at 10 µM came out at 100%.

`CCCC(=O)N[C@@H]1CCCC[C@H]1N1Cc2ncc(-c3nnc(C(F)F)o3)cc2C1=O` [Example 462, N-((1R,2R)-2-(3-(5-(difluoro-methyl)-1,3,4-oxadiazol-2-yl)-5-oxo-5,7-dihydro-6H-pyrrolo[3,4-b]pyridin-6-yl)cyclohexyl) butanamide]: the inhibition at 10 µM stood at 100%. Regarding `O=C(N[C@@H]1CCCC[C@H]1N1Cc2ncc(-c3nnc(C(F)F)o3)cc2C1=O)C1CC1` [Example 463, N-((1R,2R)-2-(3-(5-(difluoro-methyl)-1,3,4-oxadiazol-2-yl)-5-oxo-5,7-dihydro-6H-pyrrolo[3,4-b]pyridin-6-yl)cyclohexyl) cyclopropane-carboxamide], the inhibition at 10 µM is 101%. In the case of `O=C(N[C@@H]1CCCC[C@H]1N1Cc2ncc(-c3nnc(C(F)F)o3)cc2C1=O)C1CCC1` [Example 464, N-((1R,2R)-2-(3-(5-(difluoro-methyl)-1,3,4-oxadiazol-2-yl)-5-oxo-5,7-dihydro-6H-pyrrolo[3,4-b]pyridin-6-yl)cyclohexyl) cyclobutane-carboxamide], the inhibition at 10 µM was 101%. As for `O=C(N[C@@H]1CCCC[C@H]1N1Cc2ncc(-c3nnc(C(F)F)o3)cc2C1=O)c1ccccc1` [Example 465, N-((1R,2R)-2-(3-(5-(difluoro-methyl)-1,3,4-oxadiazol-2-yl)-5-oxo-5,7-dihydro-6H-pyrrolo[3,4-b]pyridin-6-yl)cyclohexyl) benzamide], the inhibition at 10 µM came to 99%. To `O=C(Cc1ccccc1)N[C@@H]1CCCC[C@H]1N1Cc2ncc(-c3nnc(C(F)F)o3)cc2C1=O` [Example 466, N-((1R,2R)-2-(3-(5-(difluoro-methyl)-1,3,4-oxadiazol-2-yl)-5-oxo-5,7-dihydro-6H-pyrrolo[3,4-b]pyridin-6-yl)cyclohexyl)-2-phenyl-acetamide] belongs 100%. Regarding `O=C1c2cc(-c3nnc(C(F)F)o3)ccc2CN1c1ccc(F)cc1-c1ccn[nH]1` [Example 467, 6-(5-(difluoro-methyl)-1,3,4-oxadiazol-2-yl)-2-(4-fluoro-2-(1H-pyrazol-5-yl)phenyl) isoindolin-1-one], the inhibition at 10 µM stood at 101%. Take `Cn1cc(-c2cc(F)cc(C#N)c2)c(N2Cc3ccc(-c4nnc(C(F)F)o4)cc3C2=O)n1` [Example 468, 3-(3-(6-(5-(difluoro-methyl)-1,3,4-oxadiazol-2-yl)-1-oxo-1,3-dihydro-2H-isoindol-2-yl)-1-methyl-1H-pyrazol-4-yl)-5-fluoro-benzonitrile]: the inhibition at 10 µM was 100%.

For the compound `O=C1c2cc(-c3nnc(C(F)F)o3)ccc2CN1[C@@H]1CCC(F)(F)C[C@H]1NC(=O)C(F)(F)C(F)(F)F` [Example 469, N-((1R,2R)-2-(6-(5-(difluoromethyl)-1,3,4-oxadiazol-2-yl)-1-oxo-1,3-dihydro-2H-isoindol-2-yl)-5,5-difluorocyclohexyl)-2,2,3,3,3-pentafluoropropanamide], the inhibition at 10 µM worked out at 99%.

In the case of `CC(F)(F)C(=O)N[C@@H]1CC(F)(F)CC[C@H]1N1Cc2ccc(-c3nnc(C(F)F)o3)cc2C1=O` [Example 470, N-((1R,2R)-2-(6-(5-(difluoromethyl)-1,3,4-oxadiazol-2-yl)-1-oxo-1,3-dihydro-2H-isoindol-2-yl)-5,5-difluorocyclohexyl)-2,2-difluoropropanamide], the inhibition at 10 µM was found to be 101%.

Consider `Cn1cc(-c2cc(F)nc(F)c2)c(N2Cc3ccc(-c4nnc(C(F)F)o4)cc3C2=O)n1` [Example 471, 6-(5-(difluoro-methyl)-1,3,4-oxadiazol-2-yl)-2-(4-(2,6-difluoro-pyridin-4-yl)-1-methyl-1H-pyrazol-3-yl) isoindolin-1-one], for which the inhibition at 10 µM is 100%. For the compound `O=C1c2cc(-c3nnc(C(F)F)o3)ccc2CN1c1ccnn1-c1cccc(Cl)c1` [Example 472, 2-(1-(3-chloro-phenyl)-1H-pyrazol-5-yl)-6-(5-(difluoro-methyl)-1,3,4-oxadiazol-2-yl) isoindolin-1-one], the inhibition at 10 µM amounted to 100%. Take `O=C1c2cc(-c3nnc(C(F)F)o3)ccc2CN1c1ccnn1-c1ccc(F)cc1` [Example 473, 6-(5-(difluoro-methyl)-1,3,4-oxadiazol-2-yl)-2-(1-(4-fluoro-phenyl)-1H-pyrazol-5-yl) isoindolin-1-one]: the inhibition at 10 µM was found to be 99%. Regarding `Cn1cc(C2=CCC(F)(F)CC2)c(N2Cc3ccc(-c4nnc(C(F)F)o4)cc3C2=O)n1` [Example 474, 2-(4-(4,4-difluorocyclo-hex-1-en-1-yl)-1-methyl-1H-pyrazol-3-yl)-6-(5-(difluoro-methyl)-1,3,4-oxadiazol-2-yl) isoindolin-1-one], the inhibition at 10 µM is 99%. As for `C[C@@H](c1ccccc1)N1Cc2ncc(-c3nnc(C(F)F)o3)cc2C1=O` [Example 475, 3-(5-(difluoro-methyl)-1,3,4-oxadiazol-2-yl)-6-((1S)-1-phenylethyl)-6,7-dihydro-5H-pyrrolo [3,4-b]pyridin-5-one], the inhibition at 10 µM was 100%.

With `C[C@H](c1ccccc1)N1Cc2ncc(-c3nnc(C(F)F)o3)cc2C1=O` [Example 476, 3-(5-(difluoro-methyl)-1,3,4-oxadiazol-2-yl)-6-((1R)-1-phenylethyl)-6,7-dihydro-5H-pyrrolo [3,4-b]pyridin-5-one], the inhibition at 10 µM is 100%.

As for `COc1ccc(N2Cc3ccc(-c4nnc(C(F)F)o4)cc3C2=O)c(Br)c1` [Example 477, 2-(2-bromo-4-methoxy-phenyl)-6-(5-(difluoro-methyl)-1,3,4-oxadiazol-2-yl) isoindolin-1-one], the inhibition at 10 µM was 95%. As for `O=C1c2cc(-c3nnc(C(F)F)o3)cnc2CN1Cc1ccccc1OCC(F)F` [Example 478, 6-(2-(2,2-difluoroethoxy)benzyl)-3-(5-(difluoro-methyl)-1,3,4-oxadiazol-2-yl)-6,7-dihydro-5H-pyrrolo [3,4-b]pyridin-5-one], the inhibition at 10 µM amounted to 100%.

Source of the values: patent US10435399B2, “HDAC6 inhibitory heterocyclic compound” (TAKEDA PHARMACEUTICAL COMPANY LIMITED, priority 2017, dated 2019).
